One substance from patent US20230348538A1, “METHOD FOR TREATMENT OF DRY EYE COMPRISNG APPLYING P55PIK INHIBITOR” (Wuhan Yicheng Biological Technology Co., Ltd., priority 2020, published 2023) can be followed below.

Entries after “also recorded” stand apart in the source; their conditions may differ.

Experiment [1] concerns rabbit model of dry eye (0.1% benzalkonium chloride). In words: Rabbit model of dry eye: tear film break-up time test. It counts as in vivo, New Zealand white rabbits. The protocol: 1.2.1 Grouping: thirty New Zealand white rabbits were randomly divided into three groups, each comprising 10 rabbits: a blank control group, a solvent control group, and a drug treatment group.
1.2.2 Preparation of a rabbit model of dry eye: the right eye of each rabbit was used to establish a dry eye rabbit model by administering 0.1% benzalkonium chloride eye drops twice a day for 4 weeks. After 4 weeks, the dry eye rabbit model was evaluated, with the conjunctiva appearing dry, tear production being reduced, and Schirmer test values being less than 10 mm/5 min (compared to the control group, where all Schirmer test values were above 10 mm).
1.2.3 Drug preparation and usage: a liquid formulation of 0.1% TAT-N16 peptide eye drops were prepared by dissolving the peptide raw materials in physiological saline according to a weight ratio of 0.1%. The eye drops comprising 0.1% TAT-N16 peptide were administered 2 drops, 3 times a day for 7 days. […]
1.3 Specimen collection and animal testing were conducted by the same individual. […] The rabbit conjunctiva appearance, fluorescein staining, tear film break-up time were analyzed using a slit lamp before and on days 4 and 7 after treatment; additionally, the Schirmer's test and conjunctival impression cytology (CIC) were carried out.
1.3.2 Tear film break-up time test: the fluorescein sodium ophthalmic strips were placed on the lower conjunctival sac for a moment, so that the fluorescein sodium was evenly distributed on the ocular surface; the eyelid was maintained open and observed under cobalt blue filter on a slit lamp; the tear film break-up time was recorded as the number of seconds that elapse between the last blink and the appearance of the first dry spot in the tear film of the cornea; The time from the opening of the eyelid to the appearance of the first dry spot on the tear film was recorded under a slit lamp microscope with cobalt blue light; each eye was measured three times, and the average of the three measurements was recorded in seconds.

For experiment [2], the system named is rat model of dry eye induced by corneal epithelial injury. The experiment in a line: Rat model of dry eye induced by corneal epithelial injury: corneal epithelial injury score (sodium fluorescein, slit lamp). It counts as in vivo, SD rats. The procedure:
Grouping and administration: the eighteen rats were then randomly divided into three groups, with 6 laboratory rats in each group (male and female in equal numbers); Group 1 was the blank control group and received no treatment; Group 2 was the solvent control group and was treated with solvent eye drops that contained a solvent but no TAT-N16 peptide; Group 3 was the drug treatment group and was treated with eye drops comprising 0.1% TAT-N16 peptide; the eye drops were administered four times a day (1 drop/time) for 7 days; the corneal epithelial injury was evaluated on days 0, 4 and 7 after treatment.
Detection method and scoring criteria: corneal staining was performed by injecting 1 drop pf sodium fluorescein into the conjunctival sac using the 5 mL sterile syringe with the […] needle; the corneal epithelium was observed under the blue light from the slit lamp after 5 minutes; and the scoring criteria were shown in Table 1.

Experiment [3] deals with volunteers diagnosed with dry eye syndrome. The experiment in a line: Population experiment: volunteers with dry eye syndrome. In kind it is in vivo, human. The note with it: 0.1% eye drops, 1-2 drops. The text has this: Currently, volunteers have been recruited to test the dry eye therapeutic effect of the 0.1% TAT-N16 peptide eye drops disclosed by the disclosure.
In experiment [4] the test system is dry eye model induced by 0.2% benzalkonium chloride solution. In words: Benzalkonium chloride dry eye model: corneal fluorescein sodium staining score. In kind it is in vivo, C57BL/6 mice. The note with it: for Corneal fluorescein staining scores (x ± s): total score of 16 points. The protocol:
The healthy male C57BL/6 mice were kept in a controlled environment with a temperature of (25±1)° C., a relative humidity of (25±5)%, and light-dark cycles (9 AM-9 PM) with simulated dawn and dusk. Forty mice (80 eyes) were treated with 5 μL of 0.2% benzalkonium chloride solution twice a day (8:00 AM and 6:00 PM) for 14 days to induce dry eye symptoms, while the remaining ten mice (20 eyes) received no treatment and served as a baseline control. Modeling was carried out on the 15th day; and the dry eye rat models were screened based on tear film break-up time (BUT), fluorescein sodium staining of corneal, and Schirmer's test I for tear secretion. Fluorescein sodium staining was carried out to determine if there any epithelial damage in the corneal of mice; one drop of 1% fluorescein sodium solution was instilled into the conjunctival sac of the mouse eyes; after 1 minute, the corneal epithelial stained by fluorescein sodium was observed under the cobalt blue filter on the slit lamp. Scoring criteria: the cornea was divided into 4 quadrants; and a scoring system was used to assess the staining; each quadrant was given a score ranging from 0 to 4 points, with a total score of 16 points. A score of 0 indicated no staining; 1 point represented less than 30 punctate staining spots; 2 points represented more than 30 punctate staining spots but not diffuse; 3 points represented obviously diffuse staining but no patchy staining; 4 points represented patchy staining. […] Group A, the drug treatment group, was treated with the eye drops comprising 0.1% TAT-[…] peptide, four times a day; Group B, the solvent control group, was treated with eye drops without TAT-[…] peptide, four times a day; and Group C, the blank control group, received no treatment; on days 1, 4, and 7 after treatment, BUT, Schirmer's test I, and fluorescein sodium staining were performed; on the 7th day, the paraffin sections of the conjunctival fornix was stained by PAS stain; and the number of PAS-positive goblet cells was counted.

[5] abbreviates: single cases, three (case 4: three to five) times a day.

Regarding “TAT-N16 peptide: cell-penetrating artificial peptide, sequence SEQ ID NO: 2, constructed by linking the peptide N16 to a TAT sequence; P55PIK inhibitor (YGRKKRRQRRRMMPYSTELIFYIEMDP)”, the “Tear film break-up time (BUT) values” in experiment [1] (0 d / before treatment (baseline), drug treatment group) came to 8.24 ± 1.13 s; in experiment [1] (4 d, 0.1% eye drops 2 drops, 3 times a day) it was 11.72 ± 1.27 s; in experiment [1] (7 d, 0.1% eye drops 2 drops, 3 times a day), 15.31 ± 1.85 s. For the same substance, the “Corneal epithelial injury score compared with blank control group or solvent control group” value in experiment [2] (4 days of treatment, P>0.05) was “no statistically significant difference”; in experiment [2] (7 days of treatment, P<0.05), “significantly lower”. For the same substance, the “Corneal epithelial injury scores (x ± s, n = 6)” value in experiment [2] (after 4 days of treatment, 0.1% eye drops four times a day) came out at 3.08 ± 1.43; in experiment [2] (after 7 days of treatment, 0.1% eye drops four times a day) it was 0.84 ± 0.96; in experiment [2] (before treatment (baseline), drug treatment group, 0.1% eye drops), 4.81 ± 1.61. Also, the “Dry eye symptoms within three days of use” value in experiment [3] (single case, three times a day) is on record as “significantly improved”. Further, the “Conjunctival congestion after a week of use” value in experiment [3] (setting [5]) was “cleared up; also recorded: disappeared”. The “Dry eye symptoms after a week of use” value in experiment [3] (setting [5]) is on record as “essentially disappeared; also recorded: mostly disappeared; also recorded: disappeared completely; also recorded: largely eliminated”. Also, in experiment [3] (single cases, three times a day), the “Dry eye symptoms on the first day of use” value is recorded as “improved significantly; also recorded: significantly relief”. Moreover, the Corneal fluorescein staining scores (x ± s) is 8.29 ± 1.31 in experiment [4] (0 d (baseline), drug treatment group, 0.1% eye drops); 4.12 ± 0.81 in experiment [4] (4 d, 0.1% eye drops four times a day); 2.79 ± 1.25 in experiment [4] (7 d, 0.1% eye drops four times a day). Besides, the “Corneal fluorescein staining score compared with blank control group, model control group and solvent control group” value is “significantly lower” in experiment [4] (4th day of treatment) and “significantly lower” in experiment [4] (7 days of continuous treatment, P<0.05).
